Ends that are not written are not given here.
Assays:
FR1 = FR1 (Homo sapiens, UniProt P15328); conditions: read-out: affinity for FR1; cited from earlier work
FR2 = FR2 (Homo sapiens, UniProt P14207); conditions: read-out: affinity for FR2; cited from earlier work
22RV1 cells = experiment: FPN expression after hepcidin therapy; format: cell-based
Excerpt: As a followup, eight different genomic datasets available for prostate cancer on cBioPortal (www.cbioportal.org) containing whole genome data from 1229 prostate cancer patients were mined for analysis. […] FACS and Western Blotting confirmed higher expression of FPN in 22RV1 compared to DU145 (FIG. 7, panel C). […] In 22RV1 cells with higher FPN higher levels of erastin were required compared to DU145 cells with low FPN (FIG. 7, panel E).

LNCaP xenografts = experiment: LNCaP prostate cancer xenografts; format: in vivo
Protocol: Each of the photographs in FIG. 6, panel C and panel D depicts a representative animal treated with vehicle (FIG. 6, panel C) or bortezomib-loaded FH (1.0 mM) (FIG. 6, panel D).
Studies in breast cancer described a “low intracellular iron” phenotype, characterized by high ferroportin, which was associated with good prognosis. In contrast, the “high intracellular iron” phenotype, characterized by low ferroportin and high hepcidin, was associated with a poor prognosis (Pinnix et al. (2010), Sci. Transl. Med., 2(43): 43ra56). Recently, a similar observation was made in prostate cancer (Tesfay et al. (2015) Cancer Res., 75(11):2254-63. To extend the analysis to prostate cancer, LNCaP prostate cancer xenografts were treated with FH-loaded bortezomib (a ROS-inducing drug).
FH alone was able to decrease tumor volume by about 33% (panel b). […] Free bortezomib was not effective, but when loaded into FH a significant therapy effect was achieved as shown in (panels a and b). Importantly, FH alone also exerted an effect, decreasing tumor volume. Each of the photographs in panel c and panel d depicts a representative animal treated with vehicle (panel c) or bortezomib-loaded FH (1.0 mM) (panel d).

FR2, sequence (P14207 17-230): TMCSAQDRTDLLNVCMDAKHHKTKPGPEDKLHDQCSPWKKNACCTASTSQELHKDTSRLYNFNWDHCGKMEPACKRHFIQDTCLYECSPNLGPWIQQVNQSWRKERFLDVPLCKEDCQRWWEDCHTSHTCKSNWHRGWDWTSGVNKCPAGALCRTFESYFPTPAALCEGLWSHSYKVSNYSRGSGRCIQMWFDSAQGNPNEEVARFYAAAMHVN
FR1, sequence (P15328 25-234): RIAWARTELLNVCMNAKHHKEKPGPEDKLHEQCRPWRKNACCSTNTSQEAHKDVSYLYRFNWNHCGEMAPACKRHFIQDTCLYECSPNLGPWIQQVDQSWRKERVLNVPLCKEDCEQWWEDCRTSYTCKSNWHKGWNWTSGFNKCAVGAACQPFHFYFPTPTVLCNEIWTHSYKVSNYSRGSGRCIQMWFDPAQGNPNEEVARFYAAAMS

CN1c2c(nc(N)[nH]c2=O)NC[C@@H]1CNc1ccc(C(=O)N[C@@H](CCC(=O)O)C(=O)O)cc1 [6S 5-methyltetrahydrofolate]
Kd (FR1): 55 nM
Kd (FR2): 1 nM

hepcidin (DTHFPICIFCCGCCHRSKCGMCCKT; ends and bridges not checked; cysteine pairing not given here; UniProt P81172 60-84, looked up) [peptide hormone, key regulator of iron homeostasis]
FPN on the cell surface (22RV1 cells): lowered FPN on the cell surface

CC(C)C[C@H](NC(=O)[C@H](Cc1ccccc1)NC(=O)c1cnccn1)B(O)O [bortezomib]
therapeutic effect (LNCaP xenografts): not effective
